One series deals with hERG ion channel (Homo sapiens, UniProt Q12809). Put plainly: hERG activity (process of Bridgland-Taylor et al.). The series is classed as cell-based. On the procedure:
hERG activity was assessed using the process described by Bridgland-Taylor, M. H., et al, J. Pharm. Tox. Methods 54 (2006) 189-199.

A short description of series [1]: Solubility in pH 7.4 phosphate buffer. The following applies: aqueous buffer, thermodynamic from solid, equilibration 24 h at 25° C., HPLC-UV and LC-MSMS. Format: physicochemical. The protocol: Solubility was determined in pH 7.4 phosphate buffer after equilibration for 24 h at 25° C. and HPLC-UV and LC-MSMS were used for quantitation.
A further series deals with T1, human mGluR2 (Homo sapiens, UniProt Q14416).
T1 construct: expressed in transfected cells; host or cells: CHO cells, stably transfected; membranes
T1 sequence (Q14416 19-872): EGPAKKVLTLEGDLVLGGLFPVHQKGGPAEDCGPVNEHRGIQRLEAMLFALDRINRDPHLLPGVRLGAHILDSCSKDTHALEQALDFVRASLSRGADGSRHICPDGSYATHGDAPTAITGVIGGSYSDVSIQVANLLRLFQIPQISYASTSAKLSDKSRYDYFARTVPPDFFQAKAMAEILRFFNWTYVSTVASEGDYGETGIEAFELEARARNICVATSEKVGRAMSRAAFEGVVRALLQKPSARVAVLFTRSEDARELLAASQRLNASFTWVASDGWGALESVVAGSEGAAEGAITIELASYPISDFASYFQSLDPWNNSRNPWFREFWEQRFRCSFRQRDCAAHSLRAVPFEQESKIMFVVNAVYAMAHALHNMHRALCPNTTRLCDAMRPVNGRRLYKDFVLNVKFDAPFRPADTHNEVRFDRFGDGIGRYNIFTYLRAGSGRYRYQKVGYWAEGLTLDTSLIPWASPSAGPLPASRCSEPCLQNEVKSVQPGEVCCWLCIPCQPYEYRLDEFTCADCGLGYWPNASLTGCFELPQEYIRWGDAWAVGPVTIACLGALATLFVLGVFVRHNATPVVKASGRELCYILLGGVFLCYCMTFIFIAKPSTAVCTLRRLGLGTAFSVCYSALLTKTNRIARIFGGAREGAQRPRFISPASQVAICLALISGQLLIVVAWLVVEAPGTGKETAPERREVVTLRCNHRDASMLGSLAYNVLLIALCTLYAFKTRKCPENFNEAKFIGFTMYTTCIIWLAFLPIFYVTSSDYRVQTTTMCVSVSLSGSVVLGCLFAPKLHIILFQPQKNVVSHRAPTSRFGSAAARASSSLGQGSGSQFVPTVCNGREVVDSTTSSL
The series is described as follows: [35S]-GTPγS binding assay, membranes from CHO cells stably expressing human mGluR2. Format: biochemical. The conditions noted are these: for Emax: 0.5 h, Emax relative to the maximum glutamate effect, 1 μM glutamate, read-out: Hu GTPgS Median Top Effect; for EC50: allosteric activator activity in presence of 1 μM glutamate, CHO membranes, human mGluR2, read-out: Hu GTPgS EC50. The protocol: A [^35S]-GTPγS binding assay was used to functionally assay mGluR2 receptor activation. The allosteric activator activity of compounds at the human mGluR2 receptor were measured using a [^35S]-GTPγS binding assay with membranes prepared from CHO cells that stably express the human mGluR2. The assay is based upon the principle that agonists bind to G-protein coupled receptors to stimulate GDP-GTP exchange at the G-protein. Since [^35S]-GTPγS is a non-hydrolyzable GTP analog, it can be used to provide an index of GDP-GTP exchange and, thus, receptor activation. The GTPγS binding assay therefore provides a quantitative measure of receptor activation.
Membranes were prepared from CHO cells stably transfected with human mGluR2. Membranes (30 μg protein) were incubated with test compound (3 nM to 300 μM) for 15 minutes at room temperature prior to the addition of 1 μM glutamate, and incubated for 30 min at 30° C. in 500 μl assay buffer (20 mM HEPES, 100 mM NaCl, 10 mM MgCl2), containing 30 μM GDP and 0.1 nM [^35S]-GTPγS (1250 Ci/mmol). Reactions were carried out in triplicate in 2 ml polypropylene 96-well plates. Reactions were terminated by vacuum filtration using a Packard 96-well harvester and Unifilter-96, GF/B filter microplates. The filter plates were washed 4×1.5 ml with ice-cold wash buffer (10 mM sodium phosphate buffer, pH 7.4). The filter plates were dried and 35 μl of scintillation fluid (Microscint 20) was added to each well. The amount of radioactivity bound was determined by counting plates on the Packard TopCount. Data was analyzed using GraphPad Prism, and EC50 and Emax values (relative to the maximum glutamate effect) were calculated using non-linear regression.

Values after ≈ are worked out from the molar mass of the structure shown. Where only a bound is given, the exact number is not on record here.

These results are taken from US8148372B2 (AstraZeneca AB, priority 2008, dated 2012).

Sequence of hERG ion channel (Q12809 whole entry): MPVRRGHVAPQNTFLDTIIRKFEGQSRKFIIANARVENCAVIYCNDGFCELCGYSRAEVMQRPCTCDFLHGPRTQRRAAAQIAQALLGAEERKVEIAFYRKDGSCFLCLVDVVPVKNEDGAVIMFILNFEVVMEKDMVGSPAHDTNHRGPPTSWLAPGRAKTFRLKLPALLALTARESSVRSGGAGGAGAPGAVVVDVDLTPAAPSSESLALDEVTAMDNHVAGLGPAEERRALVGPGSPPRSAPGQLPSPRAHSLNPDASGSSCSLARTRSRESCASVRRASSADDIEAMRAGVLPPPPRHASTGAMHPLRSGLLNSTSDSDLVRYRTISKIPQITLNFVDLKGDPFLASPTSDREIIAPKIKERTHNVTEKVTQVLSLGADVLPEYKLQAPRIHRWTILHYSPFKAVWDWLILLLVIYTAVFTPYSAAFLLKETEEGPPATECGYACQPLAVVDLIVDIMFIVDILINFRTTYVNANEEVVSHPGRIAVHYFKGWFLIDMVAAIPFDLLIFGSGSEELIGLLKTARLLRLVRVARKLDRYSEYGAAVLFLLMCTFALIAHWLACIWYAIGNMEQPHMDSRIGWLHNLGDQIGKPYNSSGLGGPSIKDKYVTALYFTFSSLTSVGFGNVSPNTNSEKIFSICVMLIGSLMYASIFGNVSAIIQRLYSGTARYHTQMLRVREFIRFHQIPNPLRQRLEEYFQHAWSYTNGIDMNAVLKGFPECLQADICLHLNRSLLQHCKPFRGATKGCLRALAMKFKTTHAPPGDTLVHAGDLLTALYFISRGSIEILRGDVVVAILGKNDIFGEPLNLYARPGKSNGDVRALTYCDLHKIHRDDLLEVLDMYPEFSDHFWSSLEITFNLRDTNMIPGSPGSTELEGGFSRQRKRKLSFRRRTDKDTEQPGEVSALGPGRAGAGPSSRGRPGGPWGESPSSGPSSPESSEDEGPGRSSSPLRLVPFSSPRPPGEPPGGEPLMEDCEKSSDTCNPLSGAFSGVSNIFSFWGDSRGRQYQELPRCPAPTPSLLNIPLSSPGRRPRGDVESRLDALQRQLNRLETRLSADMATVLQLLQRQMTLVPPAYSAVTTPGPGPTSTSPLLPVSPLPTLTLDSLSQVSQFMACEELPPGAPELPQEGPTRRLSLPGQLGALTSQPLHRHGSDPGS

In turn, `Cc1cc(-c2cc(C(=O)N(C)C)no2)cc2c1C(=O)N(C(C)C)C2` [Example 5, 5-(2-Isopropyl-7-methyl-1-oxo-2,3-dihydro-1H-isoindol-5-yl)-isoxazole-3-carboxylic acid dimethylamide] had an IC50 against hERG ion channel of over 33000 nM. The solubility at 24 h in series [1] was determined as 19.2 µM (≈ 6.29 µg/mL). In addition, at human mGluR2, the Emax was determined as 67% and the EC50 was 425 nM.
The matching figures for `CC(C)N1Cc2cc(-c3cc(C(=O)NC4CCCC4)no3)cc(Cl)c2C1=O` [Example 14, 5-(7-Chloro-2-isopropyl-1-oxo-2,3-dihydro-1H-isoindol-5-yl)-isoxazole-3-carboxylic acid cyclopentylamide]: 19000 nM, 3.53 µM (≈ 1.37 µg/mL), 97% and 60 nM.
The compound `Cc1cc(-c2cc(C(=O)N(C)C)no2)cc2c1C(=O)N([C@@H](C)C1CC1)C2` [Example 8, 5-[2-((S)-1-Cyclopropyl-ethyl)-7-methyl-1-oxo-2,3-dihydro-1H-isoindol-5-yl]-isoxazole-3-carboxylic acid dimethylamide] had an IC50 at hERG ion channel of over 33000 nM. The amount in solution in series [1] (solubility at 24 h) came to 31.1 µM (≈ 11 µg/mL). Besides, on human mGluR2, the Emax was 123% and the EC50 was 115 nM.
Consider `Cc1cc(-c2cc(C(N)=O)no2)cc2c1C(=O)N([C@@H](C)C1CC1)C2` [Example 4, 5-[2-((S)-1-Cyclopropyl-ethyl)-7-methyl-1-oxo-2,3-dihydro-1H-isoindol-5-yl]-isoxazole-3-carboxylic acid amide], for which, on hERG ion channel, the IC50 was over 33000 nM. In addition, in series [1], the solubility at 24 h came out at 9.53 µM (≈ 3.1 µg/mL). On human mGluR2, the Emax stood at 130% and the EC50 amounted to 150 nM.
`C[C@H](N1Cc2cc(-c3cc(C(=O)N4CCOCC4)no3)cc(Cl)c2C1=O)C(F)(F)F` [Example 21, 7-Chloro-5-[3-(morpholine-4-carbonyl)-isoxazol-5-yl]-2-((S)-2,2,2-trifluoro-1-methyl-ethyl)-2,3-dihydro-isoindol-1-one] registered an IC50 against hERG ion channel of over 33000 nM. This compound showed a solubility at 24 h in series [1] of 9.32 µM (≈ 4.14 µg/mL). Also, on human mGluR2, the Emax is 106% and the EC50 was 514 nM.
The compound `CC(C)N1Cc2cc(-c3cc(C(N)=O)no3)cc(Cl)c2C1=O` [Example 3] came in with an IC50 on hERG ion channel of over 33000 nM. In series [1], the concentration in solution (solubility at 24 h) came to 21.4 µM (≈ 6.84 µg/mL). Moreover, on human mGluR2, the Emax amounted to 117% and the EC50 was found to be 214 nM.
Compound `Cc1cc(-c2cc(C(=O)N(C)CCO)no2)cc2c1C(=O)N([C@@H](C)C1CC1)C2` [Example 13, 5-[2-((S)-1-Cyclopropyl-ethyl)-7-methyl-1-oxo-2,3-dihydro-1H-isoindol-5-yl]-isoxazole-3-carboxylic acid (2-hydroxy-ethyl)-methyl-amide] yielded an IC50 against hERG ion channel of over 33000 nM. Further, the concentration in solution in series [1] (solubility at 24 h) was 153 µM (≈ 58.7 µg/mL). Besides, on human mGluR2, the Emax was 78% and the EC50 was found to be 479 nM.
Taken in the same sequence, the figures for `CC(C)N1Cc2cc(-c3cc(C(=O)N4CCOCC4)no3)cc(Cl)c2C1=O` [Example 15, 7-Chloro-2-isopropyl-5-[3-(morpholine-4-carbonyl)-isoxazol-5-yl]-2,3-dihydro-isoindol-1-one] were over 33000 nM, 66.3 µM (≈ 25.8 µg/mL), 100% and 530 nM.
At hERG ion channel, `C[C@@H](C1CC1)N1Cc2cc(-c3cc(C(=O)N(C)CCO)no3)cc(Cl)c2C1=O` [Example 19, 5-[7-Chloro-2-((S)-1-cyclopropyl-ethyl)-1-oxo-2,3-dihydro-1H-isoindol-5-yl]-isoxazole-3-carboxylic acid (2-hydroxy-ethyl)-methyl-amide] gave an IC50 of over 33000 nM. The concentration in solution in series [1] (solubility at 24 h) was 273 µM (≈ 110 µg/mL). For the same compound, at human mGluR2, the Emax was found to be 141% and the EC50 is 443 nM.
Taken in the same sequence, the figures for `Cc1cc(-c2cc(C(=O)N(C)C(C)C)no2)cc2c1C(=O)N([C@@H](C)C1CC1)C2` [Example 12, 5-[2-((S)-1-Cyclopropyl-ethyl)-7-methyl-1-oxo-2,3-dihydro-1H-isoindol-5-yl]-isoxazole-3-carboxylic acid isopropyl-methyl-amide] were over 33000 nM, 11.2 µM (≈ 4.27 µg/mL), 100% and 36 nM.
`C[C@@H](C1CC1)N1Cc2cc(-c3cc(C(N)=O)no3)cc(Cl)c2C1=O` [Example 7, 5-[7-Chloro-2-((S)-1-cyclopropyl-ethyl)-1-oxo-2,3-dihydro-1H-isoindol-5-yl]-isoxazole-3-carboxylic acid amide] had an IC50 at hERG ion channel of over 33000 nM. In addition, in series [1], the solubility at 24 h was found to be 16.6 µM (≈ 5.74 µg/mL). For the same compound, at human mGluR2, the Emax amounted to 139% and the EC50 was 230 nM.
Compound `CC(C)N(C)C(=O)c1cc(-c2cc(Cl)c3c(c2)CN([C@@H](C)C2CC2)C3=O)on1` [Example 18, 5-[7-Chloro-2-((S)-1-cyclopropyl-ethyl)-1-oxo-2,3-dihydro-1H-isoindol-5-yl]-isoxazole-3-carboxylic acid isopropyl-methyl-amide] displayed an IC50 against hERG ion channel of over 33000 nM. In addition, the solubility at 24 h in series [1] was found to be 4.65 µM (≈ 1.87 µg/mL). In addition, on human mGluR2, the Emax was found to be 109% and the EC50 was determined as 56 nM.
`Cc1cc(-c2cc(C(=O)N(C)C)no2)cc2c1C(=O)N([C@@H](C)C(F)(F)F)C2` [Example 11, 5-[7-M ethyl-1-oxo-2-((S)-2,2,2-trifluoro-1-methyl-ethyl)-2,3-dihydro-1H-isoindol-5-yl]-isoxazole-3-carboxylic acid dimethylamide]: the IC50 at hERG ion channel was over 33000 nM. In addition, the solubility at 24 h in series [1] came out at 4.35 µM (≈ 1.66 µg/mL). On human mGluR2, the Emax is 114% and the EC50 came out at 66 nM.
On hERG ion channel, `CC(C)N1Cc2cc(-c3cc(C(=O)N(C)CCO)no3)cc(Cl)c2C1=O` [Example 10, 5-(7-Chloro-2-isopropyl-1-oxo-2,3-dihydro-1H-isoindol-5-yl)-isoxazole-3-carboxylic acid (2-hydroxy-ethyl)-methyl-amide] displayed an IC50 of over 33000 nM. Moreover, the concentration in solution in series [1] (solubility at 24 h) came to 54.1 µM (≈ 20.4 µg/mL). Further, on human mGluR2, the Emax was 103% and the EC50 came to 618 nM.
For `C[C@@H](C1CC1)N1Cc2cc(-c3cc(C(=O)N4CCOCC4)no3)cc(Cl)c2C1=O` [Example 20, 7-Chloro-2-((S)-1-cyclopropyl-ethyl)-5-[3-(morpholine-4-carbonyl)-isoxazol-5-yl]-2,3-dihydro-isoindol-1-one], the IC50 against hERG ion channel was over 33000 nM. In addition, the concentration in solution in series [1] (solubility at 24 h) came to 5.74 µM (≈ 2.39 µg/mL). For the same compound, on human mGluR2, the Emax was 122% and the EC50 was 85 nM.
The compound `Cc1cc(-c2cc(C(=O)N3CCNCC3)no2)cc2c1C(=O)N([C@@H](C)C1CC1)C2` [Example 16, 2-((S)-1-Cyclopropyl-ethyl)-7-methyl-5-[3-(piperazine-1-carbonyl)-isoxazol-5-yl]-2,3-dihydro-isoindol-1-one] gave an IC50 against hERG ion channel of over 33000 nM. This compound returned a solubility at 24 h in series [1] of 435 µM (≈ 172 µg/mL). Also, on human mGluR2, the Emax turned out to be 79% and the EC50 amounted to 664 nM.
Consider `C[C@H](N1Cc2cc(-c3cc(C(=O)N(C)C)no3)cc(Cl)c2C1=O)C(F)(F)F` [Example 17, 5-[7-Chloro-1-oxo-2-((S)-2,2,2-trifluoro-1-methyl-ethyl)-2,3-dihydro-1H-isoindol-5-yl]-isoxazole-3-carboxylic acid dimethylamide], for which the IC50 at hERG ion channel was over 33000 nM. The solubility at 24 h in series [1] is 15.5 µM (≈ 6.23 µg/mL). On human mGluR2, the Emax was found to be 139% and the EC50 stood at 84 nM.
`CC(C)N1Cc2cc(-c3cc(C(=O)N4CCCC4)no3)cc(Cl)c2C1=O` [Example 9, 7-Chloro-2-isopropyl-5-[3-(pyrrolidine-1-carbonyl)-isoxazol-5-yl]-2,3-dihydro-isoindol-1-one]: the IC50 at hERG ion channel was over 33000 nM. The amount in solution in series [1] (solubility at 24 h) came to 3.57 µM (≈ 1.33 µg/mL). At human mGluR2, the Emax came to 101% and the EC50 was 37 nM.
The compound `CNC(=O)c1cc(-c2cc(C)c3c(c2)CN([C@@H](C)C2CC2)C3=O)on1` [Example 6, 5-[2-((S)-1-Cyclopropyl-ethyl)-7-methyl-1-oxo-2,3-dihydro-1H-isoindol-5-yl]-isoxazole-3-carboxylic acid methylamide] came in with an IC50 against hERG ion channel of 23000 nM. The compound also showed a solubility at 24 h in series [1] of 17.5 µM (≈ 5.94 µg/mL). On human mGluR2, the Emax is 110% and the EC50 turned out to be 510 nM.
